According to US6528685B2 (Teva Pharmaceutical Industries, Ltd., priority 1994, dated 2003):

Columns and labels:
hypoxic rat [1] = assay: α-MpT-induced hypokinesia in hypoxic rat, Experiment 1A; type: in vivo; details: for Locomotor activity after α-MpT treatment, recorded as total movements / Locomotor activity after αMpT treatment, recorded as big movements: hypoxic rats, 0.5 mg/kg/day by gavage 70-80 days; for Locomotor activity after αMpT treatment, recorded as big movements: Mean ± SEM
Description: (§1) Wistar male rats, 15-19 month-old, were exposed to a single hypoxic episode which is assumed to decrease the level of dopamine in the brain. […] The drugs were administered by gavage, using a special syringe equipped with rounded tip that could be directed into the stomach. The dose was contained in 0.3-0.5 mL of distilled water. The rats were pretreated for 70-80 days with daily doses of the test drugs and received intra-peritoneal (i.p.) α-MpT (α-methyl-p-tyrosine) at a dose of 100 mg/kg in 0.3-0.5 mL saline. Controls received saline. α-MpT is assumed to inhibit the formation of L-Dopa from tyrosine and, consequently the formation of dopamine itself. Lack of central dopamine is expressed as hypokinesia. Following the injection of α-MpT, motor activity was recorded for the duration of 10 hours. Locomotion scores were taken in seven fully-computerized cages (26×25 cm) having a grid of infra-red beams at 4 cm-intervals.
(§2) Crossing of a beam initiated an electric signal which was fed into a computer. The number of crossings over a given period provided a measure of locomotion.
(§3) The records gave two data categories: (a) “small movements” originating in stationary activities such as grooming and scratching and (b) “big movements” originating in ambulation and recorded as the simultaneous crossing of more than two beams. “Total movements” include both categories.
(§4) Counts of motor activity in the presence of α-MpT were related as percent with respect to counts in its absence in the corresponding control group (unlesioned or hypoxia-lesioned). Motor activity counts of drug-treated rats were related to the hypoxia saline-treated as 100%. All behavioral tests were performed 90-120 min. after administration of the last dose of the test compound.

hypoxic rat [2] = assay: α-MpT-induced hypokinesia in hypoxic rat, Experiment 1B; type: in vivo; details: hypoxic rats, 0.3 mg/Kg daily i.p. 21 days; for Locomotor activity after α-MpT treatment, recorded as big movements: Mean ± SEM
Description: as §1, §2, §3, §4
The procedure of Experiment 1A was repeated with the following changes:
(1) Animal: 11-14 month-old rats.
The drugs were given i.p.
(3) Duration of the treatment: 21 days.
(4) Dose of α-MpT: 70 mg/Kg.

hypoxic rat [3] = assay: Amphetamine-induced stereotype behavior in hypoxic rat, Experiment 2A; type: in vivo; details: hypoxic group, with respect to hypoxia and amphetamine control
Description: Wistar male rats, 15-19 month-old, were exposed to a single hypoxic episode as described above. […] Rats pretreated for 29 days with daily doses of the test drugs (0.5 mg/kg), received a sub-cutaneous (s.c.) injection of D-amphetamine sulfate at a dose of 0.5 mg/kg. D-amphetamine is known to cause an enhancement of the effects of CNS dopamine by a mechanism involving dopamine release, and blockage of its uptake and its metabolism by MAO. The behavioral manifestation of amphetamine action is a stereotypic pattern of lateral head movements. Counts of lateral head movements were taken over two successive intervals of 1 min each, 45-60 min after the injection of amphetamine and then averaged.

hypoxic rat [4] = assay: Passive avoidance test in hypoxic rat, Experiment 3A; type: in vivo; details: hypoxic rats
Description: Wistar male rats, 15-19 month-old, were exposed to a single hypoxic episode as described above. […] The passive avoidance test was performed on day 13 after initiation the drug treatment. The apparatus consisted of a lit chamber that can be separated from a dark chamber by a sliding door. At training, a rat is placed in the lit chamber for 30 seconds, then the door is opened. The rat moves to the dark chamber after a short delay—the latency, that is recorded. Upon entry into the dark chamber, the door is shut closed and a 0.3-mA footshock is delivered for 3 seconds by a Grass S-88 stimulator. Retention of the experience is determined after 48 hours by repeating the test and recording the latency to an arbitrary maximum of 300 seconds. Longer latencies are ascribed to retention of memory and improved cognition.

hypoxia-lesioned rats = assay: Water maze working memory test, Experiment 3B; type: in vivo, rat; details: hypoxia-lesioned rats; 0.5 mg/kg/day 60 days; ± SEM
Description: The apparatus used consists of a circular water tank 160 cm in diameter filled with water to a depth of 38 cm. The water was made cloudy by the addition of milk powder. A clear Plexiglass 15 cm platform, supported by a movable stand rest on the bottom of the tank was submerged to a depth of 2 cm from the water surface. Normally a swimming rat cannot perceive the location of the platform but it may recall it from a previous experience and training, unless it suffers from some memory impairment. The time taken to locate the platform is measured in seconds and referred to as the latency. During the experiment all orientational cues such as ceiling lights etc. remained unchanged. Longer latencies are observed with rats with some impairment to their memory.
Each rat was given two trails a day for four days, entering the pool from the same point of entry each day. The position of the platform was changed daily to one of four predetermined positions. Each rat was tested twice each day over the four days, referred to as runs 1 and 2 on sessions I-IV. Initially the rat was placed on the platform for 60 seconds. It was then removed and placed at the point of entry and allowed a maximum of 120 seconds to locate the platform (run 1). The second run for that day followed 60 seconds later (run 2). In the second run the rat is expected to find the platform much sooner, having benefitted from its earlier experience. […] The average latency of run 1 in four sessions on four different days was then related to the corresponding parameter of run 2. The smaller the ratio of […], the better the short range learning score.
Table 8. […] The data are the latencies in seconds±SEM that it took a given group to locate a submerged and invisible platform the location of which was shifted from one session to the other. The time interval between sessions was one day, and that between successive runs was 60 seconds. (n=7-8 rats per group)

## C#CCN(C)[C@H](C)Cc1ccccc1 [deprenyl]
Hypoxic rat [1]; hour 1 after α-MpT
  Locomotor activity after α-MpT treatment, recorded as total movements: 88 ± 23%
  Locomotor activity after αMpT treatment, recorded as big movements: 61 ± 15%
Hypoxic rat [1]; hour 2 after α-MpT
  Locomotor activity after α-MpT treatment, recorded as total movements: 131 ± 30%
  Locomotor activity after αMpT treatment, recorded as big movements: 103 ± 22%
Hypoxic rat [1]; hour 3 after α-MpT
  Locomotor activity after α-MpT treatment, recorded as total movements: 141 ± 26%
  Locomotor activity after αMpT treatment, recorded as big movements: 184 ± 39%
Hypoxic rat [1]; hour 4 after α-MpT
  Locomotor activity after α-MpT treatment, recorded as total movements: 191 ± 45%
  Locomotor activity after αMpT treatment, recorded as big movements: 85 ± 34%
Hypoxic rat [1]; hour 5 after α-MpT
  Locomotor activity after α-MpT treatment, recorded as total movements: 229 ± 40%
  Locomotor activity after αMpT treatment, recorded as big movements: 171 ± 61%
Hypoxic rat [1]; hour 6 after α-MpT
  Locomotor activity after αMpT treatment, recorded as big movements: 65 ± 17%
Hypoxic rat [1]; hour 7 after α-MpT
  Locomotor activity after α-MpT treatment, recorded as total movements: 204 ± 7%
  Locomotor activity after αMpT treatment, recorded as big movements: 96 ± 29%
Hypoxic rat [1]; hour 8 after α-MpT
  Locomotor activity after α-MpT treatment, recorded as total movements: 131 ± 23%
  Locomotor activity after αMpT treatment, recorded as big movements: 91 ± 40%
Hypoxic rat [1]; hour 9 after α-MpT
  Locomotor activity after α-MpT treatment, recorded as total movements: 137 ± 21%
  Locomotor activity after αMpT treatment, recorded as big movements: 84 ± 23%
Hypoxic rat [1]; hour 10 after α-MpT
  Locomotor activity after α-MpT treatment, recorded as total movements: 116 ± 22%
  Locomotor activity after αMpT treatment, recorded as big movements: 29 ± 10%
Hypoxic rat [1]; hypoxia group, ten hour observation
  effect on hypokinetic syndrome, big movements, in words: less effective
Hypoxic rat [1]; hypoxic rats pretreated
  level of activity (total movements) versus corresponding control group, in words: much higher
Hypoxic rat [2]; hour 1 after α-MpT 70 mg/Kg
  Locomotor activity after α-MpT treatment, recorded as total movements: 68 ± 9%
  Locomotor activity after α-MpT treatment, recorded as big movements: 70 ± 10%
Hypoxic rat [2]; hour 2 after α-MpT 70 mg/Kg
  Locomotor activity after α-MpT treatment, recorded as total movements: 95 ± 11%
  Locomotor activity after α-MpT treatment, recorded as big movements: 91 ± 19%
Hypoxic rat [2]; hour 3 after α-MpT 70 mg/Kg
  Locomotor activity after α-MpT treatment, recorded as total movements: 126 ± 22%
  Locomotor activity after α-MpT treatment, recorded as big movements: 85 ± 19%
Hypoxic rat [2]; hour 4 after α-MpT 70 mg/Kg
  Locomotor activity after α-MpT treatment, recorded as total movements: 118 ± 20%
  Locomotor activity after α-MpT treatment, recorded as big movements: 88 ± 23%
Hypoxic rat [2]; hour 5 after α-MpT 70 mg/Kg
  Locomotor activity after α-MpT treatment, recorded as total movements: 83 ± 24%
  Locomotor activity after α-MpT treatment, recorded as big movements: 87 ± 11%
Hypoxic rat [2]; hour 6 after α-MpT 70 mg/Kg
  Locomotor activity after α-MpT treatment, recorded as total movements: 78 ± 9%
  Locomotor activity after α-MpT treatment, recorded as big movements: 67 ± 8%
Hypoxic rat [2]; hour 7 after α-MpT 70 mg/Kg
  Locomotor activity after α-MpT treatment, recorded as total movements: 56 ± 7%
  Locomotor activity after α-MpT treatment, recorded as big movements: 62 ± 9%
Hypoxic rat [2]; hour 8 after α-MpT 70 mg/Kg
  Locomotor activity after α-MpT treatment, recorded as total movements: 185 ± 13%
  Locomotor activity after α-MpT treatment, recorded as big movements: 70 ± 9%
Hypoxic rat [2]; hour 9 after α-MpT 70 mg/Kg
  Locomotor activity after α-MpT treatment, recorded as total movements: 111 ± 12%
  Locomotor activity after α-MpT treatment, recorded as big movements: 132 ± 24%
Hypoxic rat [2]; hour 10 after α-MpT 70 mg/Kg
  Locomotor activity after α-MpT treatment, recorded as total movements: 61 ± 12%
  Locomotor activity after α-MpT treatment, recorded as big movements: 54 ± 13%
Hypoxic rat [3]
  potentiation of stereotypic behavior induced by amphetamine, in words: did not potentiate
Hypoxic rat [4]
  passive avoidance performance, in words: showed no improvement
hypoxia-lesioned rats
  latency to locate platform, Session I Run 1: 42 ± 16 s
  latency to locate platform, Session I Run 2: 40 ± 17 s
  latency to locate platform, Session II Run 1: 42 ± 18 s
  latency to locate platform, Session II Run 2: 35 ± 16 s
  latency to locate platform, Session III Run 1: 32 ± 15 s
  latency to locate platform, Session III Run 2: 8 ± 2 s
  latency to locate platform, Session IV Run 1: 19 ± 6 s
  latency to locate platform, Session IV Run 2: 12 ± 4 s
